Assay results taken from publication PMC6271978, “1H-2,3-Dihydroperimidine Derivatives: A New Class of Potent Protein Tyrosine Phosphatase 1B Inhibitors” (Molecules, 2013).
“Also recorded” adds a separate entry of the source.

Tests used:
PTP1B (GST-PTP1B) = biological target: T1, PTP1B (GST-PTP1B) (Homo sapiens, UniProt P18031); test: PTP1B inhibition, colorimetric pNPP assay; type: biochemical; details: pNPP substrate
T1 sequence (P18031 1-435): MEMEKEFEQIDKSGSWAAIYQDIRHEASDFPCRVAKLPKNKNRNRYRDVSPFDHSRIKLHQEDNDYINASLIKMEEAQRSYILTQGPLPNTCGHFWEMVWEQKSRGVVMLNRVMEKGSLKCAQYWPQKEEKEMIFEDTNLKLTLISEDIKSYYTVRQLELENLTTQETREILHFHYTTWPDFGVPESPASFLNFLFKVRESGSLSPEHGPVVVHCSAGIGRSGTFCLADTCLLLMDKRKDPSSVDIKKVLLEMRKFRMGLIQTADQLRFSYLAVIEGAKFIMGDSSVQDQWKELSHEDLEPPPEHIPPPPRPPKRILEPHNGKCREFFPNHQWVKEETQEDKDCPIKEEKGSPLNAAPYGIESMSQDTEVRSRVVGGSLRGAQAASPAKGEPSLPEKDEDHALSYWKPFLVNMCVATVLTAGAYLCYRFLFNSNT

SHP-1 = biological target: T2, SHP-1 (Homo sapiens, UniProt P29350); test: SHP-1 inhibition, OMFP substrate assay; type: biochemical
T2 construct: made in house
Experimental: (§1) In addition to potency improvements, we investigated the selectivity of three representative compounds, namely, 1, 46 and 49 against other PTPs (TCPTP, SHP-1, SHP-2, LAR). […] Besides TCPTP, we tested the inhibitory activity of these compounds on other three homogenous enzymes SHP-1, SHP-2, and LAR [25].
(§2) A colorimetric assay to measure inhibition against PTP1B and TCPTP was performed in 96-well plates. Briefly, the tested compounds were solubilized in DMSO and serially diluted into concentrations for the inhibitory test. The assays were carried out in a final volume of 100 μL containing 50 mmol/L MOPS, pH 6.5, 2 mmol/L pNPP, 30 nmol/L GST-PTP1B or GST-TCPTP,and 2% DMSO, and the catalysis of pNPP was continuously monitored on a SpectraMax 340 microplate reader at 405 nm for 3 min at 30 °C. The IC50 value was calculated from the nonlinear curve fitting of the percent inhibition [inhibition (%)] vs. the inhibitor concentration using the Equation (1): Inhibition (%) = 100/[1 + (IC50/[I]k)] (1) where k is the Hill coefficient. To study the inhibition on the other PTPase family members, SHP1, SHP2 and LAR were prepared and assays were performed according to procedures described previously. Briefly, the enzymatic activity of the SHP1, SHP2 and LARwere determined at 30 °C by monitoring the dephosphorylation of substrate 3-o-methylfluorescein phosphate (OMFP), product was then detected at a 485 nm excitation wavelength and 530 nm emission wavelength by the EnVision multilabe plate reader (Perkin-Elmer Life Sciences, Boston, MA, USA). The assays were carried out in a final volume of 50 μL containing 50 mmol/L MOPS, pH 6.8, 10 μmol/L OMFP, 20 nmol/L recombinant enzyme, 2 mmol/L dithiothreitol , 1 mmol/L EDTA, and 2% DMSO. The initial rate of the dephosphorylation was presented by the early linear region of the enzymatic reaction kinetic curve, the inhibitory activity of the compound was continuously monitored.

LAR = biological target: T3, LAR (Homo sapiens, UniProt P10586); test: LAR inhibition, OMFP substrate assay; type: biochemical; details: NA = no activity (inhibitory ratio lower than 50% at the dose of 20 μg/mL), PC = Na3VO4
T3 sequence (P10586 1352-1607 limits assumed): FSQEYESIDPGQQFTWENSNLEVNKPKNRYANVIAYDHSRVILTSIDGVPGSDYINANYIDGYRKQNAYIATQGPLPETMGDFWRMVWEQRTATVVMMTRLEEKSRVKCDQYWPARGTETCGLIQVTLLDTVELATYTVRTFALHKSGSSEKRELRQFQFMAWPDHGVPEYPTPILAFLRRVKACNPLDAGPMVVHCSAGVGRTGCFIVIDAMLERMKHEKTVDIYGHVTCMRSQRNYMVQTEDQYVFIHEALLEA
Experimental: as §1
as §2, with “To study the inhibition on the other PTPase family members, SHP1, SHP2 and LAR were prepared and assays were performed according to procedures described previously.” left out, “The assays were carried out in a final volume of 50 μL containing 50 mmol/L MOPS, pH 6.8, 10 μmol/L OMFP, 20 nmol/L recombinant enzyme, 2 mmol/L dithiothreitol , 1 mmol/L EDTA, and 2% DMSO. The initial rate of the dephosphorylation was presented by the early linear region of the enzymatic reaction kinetic curve, the inhibitory activity of the compound was continuously monitored.” left out

PTP1B = biological target: T4, PTP1B (Homo sapiens, UniProt P18031); test: Enzyme kinetics: fast-binding and inhibition modality on PTP1B; type: biochemical
T4 sequence (P18031 1-435): T1 sequence (P18031 1-435)
Experimental: A kinetic study was performed in order to identify the inhibitory mechanism of compound 46 (Figure 2), using the reported enzyme kinetics assays.
To characterize the inhibitor of PTP1B, the assay was carried out in a 100 μL system containing 50 mmol/L MOPS, pH 6.5, 14 nmol/L PTP1B, pNPP in 2-fold dilution from 80 mmol/L, and different concentrations of the inhibitor. […] (2) where Km is the Michaelis constant, v is the initial rate, Vmax is the maximum rate, and [S] is the substrate concentration. The Ki value was obtained by the linear replot of apparent Km/Vmax (slope) from the primary reciprocal plot versus the inhibitor concentration [I] according to the equation Km/Vmax = 1 + [I]/Ki.

[1] = test system: tyrosine phosphorylation of insulin receptor β in CHO/hIR cells; test: Tyrosine phosphorylation of insulin receptor in CHO/hIR cells (Western blot); type: cell-based, hamster CHO cells expressing human insulin receptor; details: compound 5 µM to 20 µM for 3 h, insulin 10 nM 10 min, versus DMSO
Experimental: To explore the effect of PTP1B inhibitor in vitro on insulin signaling, CHO cells overexpressing human insulin receptor (CHO/hIR) were treated in presence or absence of compound, then tyrosine phosphorylation level of insulin receptor (p-IR) was detected after stimulated by insulin.
CHO/hIR cells were cultured in F12 nutrient medium including 10% (V/V) FBS, 100 units/mL penicillin and 100 μg/mL streptomycin with 5% CO2 at 37 °C. Cells were serum free starved for 2 h, and then treated with compounds for 3 h, followed with insulin (10 nM, Eli Lilly) for 10 min before harvested. Cells were rinsed twice with precooled 1× PBS and then lysed with 1× SDS loading buffer. Samples were heated at 100 °C for 15 min before electrophoresed with 8% SDS-polyarylamide gel under 80 to 120 volt voltage, and then transferred to nitrocellulose (NC) membranes. NC membranes were blocked for 2 h with 5% BSA (W/V) dissolved in TBST. The membranes incubated with primary antibodies overnight at 4 °C and secondary antibodies for 1 h at room temperature. The primary antibody p-Tyr (PY20) used was from Santa Cruz (Dallas, CA, USA) and β-actin from Sigma (St. Louis, MO, USA), secondary antibody was from Jackson Immuno Research (Philadelphia, PA, USA).

[2] = means ± SD of three replications, OA/PC = oleanolic acid positive control

T2 sequence (P29350 whole entry): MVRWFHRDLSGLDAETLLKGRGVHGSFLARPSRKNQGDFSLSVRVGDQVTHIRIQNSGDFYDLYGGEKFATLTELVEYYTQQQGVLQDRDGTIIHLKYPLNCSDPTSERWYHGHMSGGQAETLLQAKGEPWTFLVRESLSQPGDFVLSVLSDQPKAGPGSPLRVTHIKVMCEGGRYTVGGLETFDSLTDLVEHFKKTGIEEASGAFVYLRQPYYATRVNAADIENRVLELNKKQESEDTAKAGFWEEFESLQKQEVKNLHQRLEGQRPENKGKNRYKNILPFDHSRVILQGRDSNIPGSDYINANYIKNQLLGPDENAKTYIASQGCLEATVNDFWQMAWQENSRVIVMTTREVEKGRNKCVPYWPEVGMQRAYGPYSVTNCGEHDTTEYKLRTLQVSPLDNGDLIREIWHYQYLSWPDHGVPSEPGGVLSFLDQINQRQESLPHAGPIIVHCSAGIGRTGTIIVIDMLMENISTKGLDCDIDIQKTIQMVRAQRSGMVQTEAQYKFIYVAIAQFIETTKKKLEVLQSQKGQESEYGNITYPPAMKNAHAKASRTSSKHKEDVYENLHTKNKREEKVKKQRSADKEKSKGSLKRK

inhibition at 20 µg/mL (PTP1B (GST-PTP1B); PTP1B, compound at 20 μg/mL): 99.5%
IC50 (PTP1B (GST-PTP1B); [2]): 0.66 ± 0.03 µM
IC50 PTP1B (PTP1B (GST-PTP1B); [2]): submicromolar
IC50 (SHP-1; OMFP substrate, means ± SD of three replications, PC = Na3VO4): 6.01 ± 0.2 µM
selectivity for PTP1B over SHP-1 (SHP-1; from IC50 values): about 9 fold
IC50 LAR (LAR): no visible activities
binding behaviour of inhibition of PTP1B (time dependence) (PTP1B; preincubation of PTP1B with compound on ice for different times): fast-binding inhibition
SMILES: O=C(O)CNC(=O)c1ccc(C2Nc3cccc4cccc(c34)N2)nc1 [Compound 46]
inhibition modality toward PTP1B (PTP1B; Lineweaver-Burk plot, increased Km, unchanged Vmax, pNPP substrate): competitive inhibitor; also recorded: Typical competitive inhibition
tyrosine phosphorylation level of insulin receptor (p-IR) [1]: greatly improved p-IR level
